Data on one compound can be found in US8652785B2, “Method of screening a modulator of endothelial NO synthase comprising the use of heme binding protein 1” (Sanofi, priority 2008, dated 2014).

SMILES strings stand for the structures.

Test [1] has as its system eNOS promoter. Kind of test: eNOS-transcription test after siRNA transfection of EA.csr03 cells. The format is cell-based, human. The method, then:
For liposomal transfection of siRNA in endothelial cells, EA.hy926 or EA.csr03 cells were sown with a density of 50 000 cells per well in a volume of 100 μl growth medium in 96-well plates. After incubation for 24 h in an incubator, the cells were washed with sterile DPBS and were covered in each case with 100 μl/well of serum-free and antibiotic-free special medium Opti-MEM® I. Then the siRNAs (see below) used were preincubated with Lipofectamine™ 2000 in accordance with the manufacturer's instructions and finally 50 μl/well of the transfection mixture was added to the cells. Unless stated otherwise, the siRNAs were used at final concentrations of 100 nM. Per well, after previous optimization, 0.8 μl of Lipofectamine™ 2000 was used for transfection of the EA.hy926 cells, and 0.5 μl for the EA.csr03 cells. After the cells had been incubated in an incubator for 6 hours, the transfection medium was replaced with normal growth medium and the next experimental steps were carried out in the time frame of 24-72 hours after transfection. Primary HUVECs were sown at 100 000 cells per well in Collagen I-coated 6-well plates and were cultivated in normal growth medium up to 60-70% confluence. Prior to transfection, the cells were washed with sterile DPBS and covered in each case with 800 μl/well of serum-free and antibiotic-free special medium Opti-MEM® I. 6 μl Lipofectin® and siRNA at a final concentration of 100 nM were used per well. […]
The survey of the efficiencies of different siRNAs to the target proteins were tested. The respective residual mRNA was determined by quantitative RT-PCR, 24 hours after transfection of human endothelial cells (EA.hy926/EA.csr03). […] After cell lysis, the luciferase activity and the total cellular protein content were determined.
For transcription test for eNOS promoter activation, 20 000 cells per well of the reporter cell line EA.csr03 were sown in a white 96-well cell culture plate. […] The light units released were measured in the Genios microplate reader from Tecan Deutschland (Crailsheim, Germany). […]

The test system of another test is HEBP1_predicted mRNA. Briefly: HEBP1_predicted expression in cardiac tissue of rats with chronic heart failure after myocardial infarction. To be noted: 10 mg/kg/day for 9 weeks, versus placebo, mRNA relative to GAPDH. The format is in vivo. The protocol:
Rats were divided in three groups. One group was sham-operated (group 1), whereas in groups 2 and 3 chronic heart failure was induced by myocardial infarction. Only, the latter group was treated with AVE3085 (10 mg/(kg day)) for 9 weeks. Thereafter, mRNA expression (HEBP1 in comparison to GAPDH) was determined in heart tissue. Means±SD of 7 experiments are shown, * p<0.05 vs. sham operated.
In another context, an animal study was conducted, in which rats developed chronic heart failure after an induced myocardial infarction. From available RNA samples from cardiac tissue it was possible to determine the expression of HEBP1_predicted at the mRNA level. […]
Isolation of RNA from the cell types used was carried out using the RNeasy® mini-isolation method. […] The concentration and purity of the prepared RNA were determined using a NanoDrop® ND-1000 spectrophotometer (NanoDrop Technologies Inc., Wilmington, USA). In this, from a total volume of 2 μl, the absorption of the samples was measured at a wavelength of λ=260 nm (A260) for nucleic acids. Conversion of the measured absorption to the concentration of the RNA solution was carried out by means of the extinction coefficient of 40 ng×cm^−1×μl^−1 on the basis of the Lambert-Beer law. […] The RNA obtained was then diluted in the ratio 1:5 and either used immediately in a quantitative RT-PCR or stored at −80° C. for future use. […]

The subject of test [2] is eNOS promoter. Briefly: eNOS-transcription test (eNOS-promoter luciferase reporter cell line EA.csr03). In kind it is cell-based. The settings on record: Homo sapiens; EA.csr03 cells, nonlinear regression; read-out: EC50 in the eNOS-transcription test. The protocol: The EA.csr03 cells are cells of a stable eNOS-promoter luciferase cell line. It was obtained by transfection of EA.hy926 cells with a firefly luciferase reporter construct, with a 3.5 kb fragment of the eNOS-promoter added. Cultivation of these cells was carried out with IMDM with GlutaMAX™ I supplemented with 100 U/ml penicillin, 100 μg/ml streptomycin, 10% FCS and 0.4 mg/ml geneticin as selection antibiotic. The EA.hy926 cells are a stable human cell line, which was obtained by fusion of HUVEC with the human […] cell line A549. This cell line is characterized by expression of specific endothelial cell markers, e.g. the “van-Willebrand factor”. The cells used are an original culture of Cora Jean Edgell of passage 32. The cells were cultivated in IMDM with GlutaMAX™ I supplemented with 100 U/ml penicillin, 100 μg/ml streptomycin, HAT Hybri-Max™ medium additive (hypoxanthine, aminopterin and thymidine) and Biotect protective medium.
For transcription test for eNOS promoter activation, 20 000 cells per well of the reporter cell line EA.csr03 were sown in a white 96-well cell culture plate. After 24 hours, various dilutions of the substance in cell culture medium were prepared starting from DMSO stock solutions and were preincubated for 10 min at 37° C. on a water bath. Then these incubation media (100 μl/well) were added to the cells. After incubation for 18 hours, the cells were washed twice with DPBS (100 μl/well) and luciferase lysis buffer (50 μl/well) was added. After 10 min, the solubilized luciferase-substrate luciferin (100 μl/well) was added to the cell lysates. During the luciferase-catalyzed oxidation of luciferin to oxyluciferin there is release of chemiluminescence. […] The light units released were measured in the Genios microplate reader from Tecan Deutschland (Crailsheim, Germany).
On the technique in general: In a reporter assay the amount or activity of a reporter protein is the signal.

For the compound `O=C(NC1Cc2ccccc2C1)c1ccc2c(c1)OC(F)(F)O2` [AVE3085], the “induction of the eNOS promoter versus DMSO-control, HEBP1 switched off using siHEBP1 25” value in the test with eNOS promoter [1] (AVE3085 5 μM, 18 h, siHEBP1 25) amounted to 1.6 factor. Besides, the “induction of the eNOS promoter versus DMSO-control, siLV2-treated control cells” value in the test with eNOS promoter [1] (AVE3085 5 μM, 18 h, siLV2-control) was determined as 2.4 factor. Moreover, the “reduction of eNOS-promoter activation by AVE3085 after switching-off of HEBP1 by siRNA versus siLV2-control” value in the test on eNOS promoter [1] (HEBP1 siRNA) came to 64%. The “influence of treatment on expression of HEBP1_predicted in heart” value in the test with HEBP1_predicted mRNA is listed as “did not show any influence at all”. The EC50 in the test on eNOS promoter [2] amounted to 400 nM.

For orientation: EC50 means the midpoint of the concentration-response curve.
